The results in this text go back to US20160340659A1, “ACTIN BINDING PEPTIDES AND COMPOSITIONS COMPRISING SAME FOR INHIBITING ANGIOGENESIS AND TREATING MEDICAL CONDITIONS ASSOCIATED WITH SAME” (YISSUM RESEARCH AND DEVELOPMENT COMPANY OF THE HEBREW …, priority 2014, published 2016).

Experiment [1] addresses T1, actin (Oryctolagus cuniculus, UniProt P68135). Description: Surface plasmon resonance (BIAcore) of actin binding. The conditions noted are these: actin on CM5 chip, 25° C. The method, then:
SPR was performed on a BIAcore 3000 instrument (BIAcore, Uppsala, Sweden). Actin was diluted in 100 mM CH3COONa pH 4.6 to a final concentration of 20 μg/ml (200 μl total) resulting in ˜1 ng immobilized actin on a CM5 BIAcore sensor chip (GE Healthcare Bio-Sciences AB) using the standard BIAcore amine coupling chemistry protocol. The CM5 chip allows four separate flow cells to be operated in the BIAcore 3000 instrument used in these experiments. Coupling is achieved by activating the surface of the sensor chips with equal volumes of 50 mM N-hydroxysuccimide (NHS)/200 mM Nethyl-N-(3-[…])-carboiimide (EDC) (BIAcore, AB, Uppsala, Sweden) to form activated carboxyl groups. An actin solution […] was run over the chip for 5 min at a rate of 10 μl/min, allowing the amine groups on the protein to react with the activated esters. In the final stage of immobilization, the surface was blocked by 1M ethanol amine, pH 8.0. The binding assay was performed by injecting the hRNASET2, trT2-49, trT2-49m or peptides solutions in running buffer (HBS—10 mM Hepes, 150 mM Sodium Chloride, 3 mM EDTA, 0.005% Polysorbate 20) at 5 different concentrations at a flow rate of 10 μl/min at 25° C. Injections were performed simultaneously over all four channels and blank surface (a plain dextran matrix, channel 1) was used as control. The net signal was obtained by subtracting the blank signal from the signal of the immobilized surface. The association phase for protein or peptides binding to actin was followed for 4 min, and dissociation phases were monitored for 3 min. Surface regeneration between consecutive binding cycles included a 1 min injection of 1 mM NaOH. The response was monitored as a function of time (sensorgram) at 25° C. Multi-concentration data were globally fit using BIA evaluation 3.2 software.
The strength of a two molecule interaction is characterized by the equilibrium dissociation (binding) constant KD=[P][L]/[PL], where [P] is the concentration of free protein (or peptide), [L] the concentration of ligand and [PL] the concentration of the complex. […]
In general terms: In SPR one partner is held on a chip, and binding of the other changes the refractive index at the surface.

In the next experiment the test system is HUVEC. The experiment can be described thus: HUVEC tube formation assay on Matrigel. It counts as cell-based, human. The conditions noted are these: peptides at 2 μM, compared to Control; for inhibition of VEGF-induced tube formation: 1 μg/ml VEGF; for inhibition of angiogenin-induced tube formation: 1 μg/ml angiogenin. How it is done:
FIGS. 6A-6D illustrate in-vitro inhibition of angiogenesis in the HUVEC model by T2 peptides. HUVEC cells plated on Matrigel™ were exposed to 2 μM of T2 peptides A103-Q159 (SEQ ID NO: 60), K108-K133 (SEQ ID NO: 57) or K108-L123 (SEQ ID NO: 67), in addition to 1 μg/ml of angiogenin or VEGF as the angiogenic agent, as indicated. Control wells received PBS. FIG. 6B-Results were assessed by imaging software, and quantified, and expressed relative to tube formation with angiogenin or VEGF alone (100%) Column 1=angiogenin, column 2=angiogenin+SEQ ID NO: 60, column 3=angiogenin+SEQ ID NO: 57, column 4=angiogenin+[…], Column 5=VEGF, column 6=VEGF+SEQ ID NO: 60, column 7=VEGF+SEQ ID NO: 57, column 8=VEGF+[…]. FIGS. 6C and 6D illustrate the inhibitory effect of truncated human T2 polypeptide trT2-49m (SEQ ID NO: 129) on angiogenin and VEGF induced HUVEC tube formation. Note the significant inhibition of HUVEC tube formation by all of the T2 peptides assayed, and in particular, K108-K133 (SEQ ID NO: 57);
HUVEC (CC-2519)(fresh or commercially provided) are maintained in M199 rrrediurn supplemented with 20% FCS, 1% glutamine, 1% antibiotic-antimycotic solution, ECGF, and heparin, plated in a 96-well plate (14×10^3 cells/well) previously coated with growth factor-depleted Matrigel™ (BD Biosciences), in M199 medium containing 5% FCS and 0.005% ECGF. The wells are supplemented with candidate T2 RNase peptides or PBS, and angiogenic growth factors (1 μg/ml angiogenin, bFGF or VEGF) to a final volume of 120 pl. Plates are incubated (overnight), photographed and the extent of tube formation (angiogenesis) assessed.

The test system of experiment [2] is chick Chorio-Allantoic Membrane (CAM). Description: Ex ovo CAM angiogenesis assay. It counts as in vivo, chicken. The conditions noted are these: 3 μg on paper disk daily for four days from day 8; compared to PBS control. How it is done: In this assay, in-vivo angiogenesis is assessed on live chick embryos grown in petri dishes. Fertilized eggs are cracked into a petri dish after a few (e.g. 3) days incubation at appropriate temperature (e.g. 37° C.) and humidity. In the following days, the embryos developed a vascular network, which can then easily be exposed to any treatment or combination of treatments, for example, via delivery onto absorbent disks placed on/about the developing vascular regions. Angiogenesis is scored by periodically (e.g. 1×/day, 2×/day, 1×/2 days, 1×/4 days, etc) counting the number of blood vessels around the disk.
Fertilized chicken eggs were incubated horizontally at 37° C. and humidity of 60-62% and cracked into Petri dishes at embryonic day 4. Incubation was continued under the same conditions. […] Treatment was given every day for four days, then, the number of blood vessels around the treated disks was counted.

For experiment [3], the target named is T1, actin. Description: Actin binding solid phase assay. The settings on record: immobilized actin, 0-500 ng/100 μl well. How it is done:
96-well plates (MaxiSorp® flat-bottom 96-well plate, Fisher Scientific Inc., Fair Lawn, N.J.) were coated with 500 ng actin in 100 μl carbonate-bicarbonate buffer (pH 9.5) for 1 h at 37° C. The plate was washed once with TBS and then blocked with 3% BSA in 200 μl TBS buffer at 37° C., for 1 h. Wells were then washed once with 250 μl TBS. trT2-49, trT2-49m or each of the 29 peptides were added at 1:2 dilutions in 100 μl TBS, starting from 500 ng/well, incubated for 1 h at 37° C. and then washed three times with TBS containing 0.1% Tween-20 (TBST). Each well was then treated with 100 μl rabbit anti-trT2-49 diluted 1:500 in TBS and incubated for 1 h at 37° C. The wells were washed three times with TBST and then incubated with 100 μl goat anti-rabbit IgG-HRP (Jackson ImmunoResearch, West Grove, Pa.) diluted 1:10,000 in TBS, for 1 h at 37° C. Wells were then washed twice with TBST, and once with TBS before 100 μl substrate (1-step Ultra TMB-ELISA, Pierce, Fisher Scientific Inc.) were added. Absorbance at 655 nm was measured 10 min thereafter using a Power Wave 200 Microplate Scanning Spectrophotometer (Bio-Tek Instrument, Winooski, Vt.). Affinity was evaluated by double reciprocal plotting.

“Also recorded” adds a separate entry of the source. Where no end group is shown, it is not given here.

With “ALNSQKKYFGRSLELYRELDLNSVLLKLGIKPSINYYQVADFKDALARVYGVIPKIQ [SEQ ID NO: 60]”, the kon on actin [1] (read-out: Ka × 10^3) stood at 1060 M⁻¹ s⁻¹. Also, in the experiment with HUVEC, the “inhibition of VEGF-induced tube formation” value was about 40% and the “inhibition of angiogenin-induced tube formation” value is given as about 40%. In addition, the “inhibition of angiogenesis (number of blood vessels around disk)” value in experiment [2] is reported as “effective in inhibiting angiogenesis”. Further, the “actin binding in solid-phase assay” value at actin [3] (listed as A103-Q159) is “most effective actin binding peptides amongst the 29 candidate peptides; also recorded: effective and concentration-dependent binding of actin”.
“KKYFGRSLELYRELDLNSVLLKLGIK [SEQ ID NO: 57, 26-amino acid peptide representing amino acids 108-133 of RNASET2]”: the “Ka × 10^3” value at actin [1] is 3.32 ×10^3 1/Ms. Further, in the experiment with HUVEC, the “inhibition of VEGF-induced tube formation” value is on record as about 75% and the “inhibition of angiogenin-induced tube formation” value is on record as about 50%. Also, the “inhibition of angiogenesis (number of blood vessels around disk)” value in experiment [2] was “effective in inhibiting angiogenesis”. Also, the “actin binding in solid-phase assay” value at actin [3] (listed as K108-K133) is “most effective actin binding peptides amongst the 29 candidate peptides; also recorded: effective and concentration-dependent binding of actin”.
